These results are taken from BindingDB's records for doi:10.1016/s0960-894x(01)00080-4 (Novartis Pharma Research, 2001).

Structures are written as SMILES.

What is called IC50 is the concentration needed to halve the response being measured.

For the experiment, the target named is Epidermal growth factor receptor (Homo sapiens) (UniProt P00533). As to the kind of experiment: Tested for inhibitory activity against Epidermal growth factor receptor.
Epidermal growth factor receptor (Homo sapiens), sequence (P00533 whole entry, looked up): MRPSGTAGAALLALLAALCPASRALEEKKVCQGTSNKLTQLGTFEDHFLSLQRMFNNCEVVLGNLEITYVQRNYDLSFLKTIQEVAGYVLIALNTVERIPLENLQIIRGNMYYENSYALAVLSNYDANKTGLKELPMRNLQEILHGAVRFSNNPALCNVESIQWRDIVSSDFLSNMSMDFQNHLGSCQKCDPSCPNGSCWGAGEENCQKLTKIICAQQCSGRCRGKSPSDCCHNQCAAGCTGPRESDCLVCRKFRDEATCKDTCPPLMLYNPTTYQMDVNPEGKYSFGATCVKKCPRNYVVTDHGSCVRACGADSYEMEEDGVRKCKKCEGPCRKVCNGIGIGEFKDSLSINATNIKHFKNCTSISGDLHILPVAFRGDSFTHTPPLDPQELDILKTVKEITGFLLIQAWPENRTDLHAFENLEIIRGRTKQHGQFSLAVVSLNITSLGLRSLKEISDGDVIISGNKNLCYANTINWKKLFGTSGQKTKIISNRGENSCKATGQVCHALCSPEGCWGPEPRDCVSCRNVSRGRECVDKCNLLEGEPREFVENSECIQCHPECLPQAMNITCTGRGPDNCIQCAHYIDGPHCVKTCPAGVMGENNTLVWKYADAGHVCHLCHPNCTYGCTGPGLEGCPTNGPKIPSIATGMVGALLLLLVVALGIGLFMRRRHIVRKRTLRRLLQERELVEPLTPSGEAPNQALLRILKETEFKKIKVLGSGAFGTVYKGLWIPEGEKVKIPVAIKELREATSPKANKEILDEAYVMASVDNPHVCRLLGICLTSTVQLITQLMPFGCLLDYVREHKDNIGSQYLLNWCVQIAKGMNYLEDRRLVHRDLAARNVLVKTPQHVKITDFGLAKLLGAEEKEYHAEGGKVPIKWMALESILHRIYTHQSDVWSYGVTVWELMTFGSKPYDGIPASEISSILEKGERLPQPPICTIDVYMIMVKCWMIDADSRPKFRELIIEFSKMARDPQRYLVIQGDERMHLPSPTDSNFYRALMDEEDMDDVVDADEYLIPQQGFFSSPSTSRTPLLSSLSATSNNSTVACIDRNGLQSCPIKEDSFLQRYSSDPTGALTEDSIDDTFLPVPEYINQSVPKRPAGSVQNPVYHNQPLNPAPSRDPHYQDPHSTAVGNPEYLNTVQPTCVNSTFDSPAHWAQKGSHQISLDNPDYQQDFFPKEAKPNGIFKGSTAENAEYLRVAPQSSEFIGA
`Nc1ncnc2c1c(-c1cccc(O)c1)cn2C1CCN(CCO)CC1` [3-(4-amino-7-(1-(2-hydroxyethyl)piperidin-4-yl)-7H-pyrrolo[2,3-d]pyrimidin-5-yl)phenol] had an IC50 of 360 nM. That is a sub-micromolar value.

Compound `COC(=O)CN1CCC(n2cc(-c3cccc(O)c3)c3c(N)ncnc32)CC1` [{4-[4-Amino-5-(3-hydroxy-phenyl)-pyrrolo[2,3-d]pyrimidin-7-yl]-piperidin-1-yl}-acetic acid methyl ester] had an IC50 of 290 nM. The same measure for `COc1cccc(-c2cn(C3CCN(CCN(C)CCO)CC3)c3ncnc(N)c23)c1` [2-((2-(4-(4-amino-5-(3-methoxyphenyl)-7H-pyrrolo[2,3-d]pyrimidin-7-yl)piperidin-1-yl)ethyl)(methyl)amino)ethanol]: 340 nM. Compound `CN(C)C(=O)CN1CCC(n2cc(-c3cccc(O)c3)c3c(N)ncnc32)CC1` [2-{4-[4-Amino-5-(3-hydroxy-phenyl)-pyrrolo[2,3-d]pyrimidin-7-yl]-piperidin-1-yl}-N,N-dimethyl-acetamide] registered a half-inhibitory concentration (IC50) of 400 nM. The IC50 values of the last two compounds are within 1.5-fold of each other. The same measure for `COCCNCCN1CCC(n2cc(-c3cccc(OC)c3)c3c(N)ncnc32)CC1` [7-{1-[2-(2-Methoxy-ethylamino)-ethyl]-piperidin-4-yl}-5-(3-methoxy-phenyl)-7H-pyrrolo[2,3-d]pyrimidin-4-ylamine]: 620 nM.
